Reference: US20160220710A1, “COMPOSITIONS AND METHODS FOR DELIVERING PHARMACEUTICAL AGENTS” (THE REGENTS OF THE UNIVERSITY OF MICHIGAN, priority 2015, published 2016)

Columns and labels:
[1] = tested on: TLR2, TLR4, TLR9 and MyD88; test: Western blot of TLR2, TLR4, TLR9 and MyD88 in RAW 264.7 cells; format: cell-based, murine; conditions: 24 h incubation
Protocol: (§1) The murine macrophage cell line RAW 264.7 was purchased from ATCC (Manassas, Va.) and maintained in DMEM (Life Technologies, Carlsbad, Calif.) supplemented with 10% FBS. Soluble CFZ or isolated CLDIs were added at various concentrations in DMEM with 5% FBS to 6-well plates containing 4×10^5 cells/well and incubated (24 h at 37° C. and 5% CO2). Culture supernatants were harvested at 24 h, centrifuged (1500×g for 5 min), and stored (−20° C.) in frozen aliquots prior to analysis. For experiments involving TLR stimulation, cells were washed twice with pre-warmed DPBS to remove extracellular, non-phagocytosed CLDIs or CFZ, and then the cells were serum-starved for 18 h in DMEM. Supernatants were collected from unstimulated cells and cells stimulated with 200 ng/ml Pam3 or 1 μg/ml LPS in DMEM.

[2] = tested on: TLR4; test: TNFα ELISA after LPS stimulation; format: cell-based, murine; conditions: Mus musculus, read-out: inhibition of TNFα production
Protocol: as §1
The media of cells with or without 6 h TLR stimulation by Pam3 or LPS was harvested, and TNFα and IL-1RA levels were measured by ELISA (Duoset, R&D Systems, Minneapolis, Minn.) in duplicate wells according to the manufacturer's instructions. The cytokine concentrations were expressed as picogram per milligram of cell lysate. Experiments were repeated three times and values are expressed as the mean±SD.

[3] = tested on: F4/80(+) peritoneal macrophages (PMΦ); test: Flow cytometry of peritoneal exudate of CFZ-treated mice; format: in vivo
Description: Mice (4 week old, male C57Bl6) were purchased from the Jackson Laboratory (Bar Harbor, Me.) and acclimatized for 1 week in a specific-pathogen-free animal facility. Animal care was provided by the University of Michigan's Unit for Laboratory Animal Medicine (ULAM) and the experimental protocol was approved by the Committee on Use and Care of Animals in accordance with NIH guidelines. An oral diet containing CFZ was fed to mice as previously described (Baik J, et al., Antimicrob. Agents Chemother. 2013; 57:1218-30; Baik J, et al., PLoS One 2012; 7:e47494; Keswani R K, et al., Mol. Pharm. 2015:10). CFZ (C8895; Sigma-Aldrich, St. Louis, Mo., USA) was dissolved in sesame oil (Roland, China, or Shirakiku, Japan) to achieve a concentration of 3 mg/ml, which was mixed with Powdered Lab Diet 5001 (PMI International, Inc., St. Louis, Mo., USA) to produce a 0.03% drug to powdered feed mix. A corresponding amount of sesame oil was mixed with chow for vehicle treatment (control mice). On average, food consumption for a 25 g mouse was 3 g per day, resulting in 10 mg of bioavailable drug/kg per day. For CFZ treatment, the drug diet was administered for 8 weeks followed by regular chow for 8 weeks (washout phase).
Peritoneal lavage was done as previously reported before and after the initiation of CFZ or vehicle treatment (1 week, 2 weeks, 4 weeks, 8 weeks and 16 weeks (8 weeks drug feed+8 weeks washout phase)) (16). Mice were euthanized as described above followed by sterilization of the outer skin with 70% ethanol. A small incision was made along the midline of the abdomen followed by abdominal skin retraction up to the thoracic boundary and the animal extremities to expose the intact peritoneal wall. A smaller incision was then made on the peritoneal wall to expose the cavity. The entire peritoneal cavity was washed with ice-cold sterile PBS+5% FBS (5-10 ml) and collected as peritoneal exudate. The exudate was then centrifuged (100×g for 5 min, 4° C.) and resuspended in 1.5 ml of PBS+5% FBS. Cells were counted using a hemocytometer for viable cells using Trypan Blue and for CLDI-containing cells.
Peritoneal and alveolar lavage was performed as stated before to obtain the respective exudates. Purified Fc block CD16/32 (1 μl) was added for every 100,000 cells for analysis. For CLDI fluorescence signal experiments, cells were pelleted by centrifugation (100×g for 5 min) followed by resuspension in PBS+5% FBS (500 μl). For functional assays, antibodies—anti-F4/80-eFluor 450 (48-4801, Affymetrix eBioscience, San Diego, Calif., USA), anti-CD86-FITC (553691, BD Biosciences, San Jose, Calif., USA), anti-CD206-FITC (141704, BioLegend®, San Diego, Calif., USA), anti-CD11c-eFluor450 (48-0114, Affymetrix eBioscience) and anti-Ly6G-eFluor450 (48-5931, Affymetrix eBioscience) were added to the cell suspension at a loading of 1 μg/100,000 cells (1:10 volumetric ratio) and incubated in the dark (30 min, 4° C.). Following incubation, the samples were diluted with PBS and pelleted by centrifugation (100×g, 5 min). The supernatant was discarded and the pellet was re-suspended in 300 μl of PBS+2% FBS. Just prior to analysis, PI (5 μl per 1×10^6 cells) was added to the cells to assess viability. Sample measurements were done on a MoFlo® Astrios™ EQ. All gating and analysis was done on at least 10,000 live cells (PI(−) cell population) using FlowJo. CLDI(+) cells were gated either using 640 671/30 or 640 795/70. […] These cells also had extremely high side-scatter that were measured as saturated signals. This small sub-population of cells were not considered for evaluation of change of CD206 expression in the peritoneal macrophages.

[4] = tested on: NF-κB (p65); test: p65 nuclear translocation immunofluorescence; format: cell-based, murine
Protocol: as §1, with “Supernatants were collected from unstimulated cells and cells stimulated with 200 ng/ml Pam3 or 1 μg/ml LPS in DMEM.” left out
Brightfield and fluorescence (DAPI, FITC, Texas Red and Cy5) images were captured using the Nikon Eclipse Ti (Japan) inverted microscope equipped with a Nikon Digital Sight DS-Fi2 camera (Japan) for brightfield and Photometrics Coolsnap Myo camera (Tucson, Ariz.) for fluorescence. […] For determining the ratio of nucleus-to-cytoplasm p65 fluorescence, ImageJ was used following previously described methods (Fuseler, et al., Microsc. Microanal. 2006, 12, 269-276; Noursadeghi, M. et al., J. Immunol. Methods 2008, 329, 194-200). The average volume of CLDIs was calculated using the area, Feret max and min values of each CLDI acquired from ImageJ. […]

Structure (SMILES): CC(C)/N=c1\cc2n(-c3ccc(Cl)cc3)c3ccccc3nc-2cc1Nc1ccc(Cl)cc1 [CFZ, 3-(p-chloroanilino)-10-(p-chlorophenyl)-2, 10-dihydro-2-isopropyliminophenazine]
- TLR2 and TLR4 expression [1]: upregulated TLR2 and TLR4 expression
- inhibition at 2 µM ([2]; 2 μM): 51.2%
- inhibition at 4 µM ([2]; 4 μM): 76.5%
- % CLDI(+) cells identified as F4/80(+) CD86(+) ([3]; 4 weeks post-drug feeding): ~38%
- % CLDI(+) cells identified as F4/80(+) CD206(+) ([3]; 4 weeks post-drug feeding): ~20%
- ratiometric CD86 median surface expression in CLDI(+) relative to CLDI(−) ([3]; 4 weeks post-drug feeding): ~1.17
- % of F4/80(+) PMΦ that were CLDI(+) ([3]; 8 weeks of washout): ~25%
- ratiometric CD86 median surface expression in CLDI(+) relative to CLDI(−) ([3]; 8 weeks post-drug feeding): 0.95
- % CLDI(+) cells identified as F4/80(+) CD86(+) ([3]; 8 weeks+8 weeks washout): ~70%
- % CLDI(+) cells identified as F4/80(+) CD206(+) ([3]; 8 weeks+8 weeks washout): ~81%
- CLDI accumulation within F4/80(+) CD86(+) cells ([3]; 8 weeks+8 weeks washout): ~95%
- CLDI(+)% as a proportion of F4/80(+) CD206(+) cells ([3]; 8 weeks+8 weeks washout): ~93%
- % of F4/80(+) PMΦ that were CLDI(+) ([3]; after 4 weeks of CFZ treatment): ~38%
- CLDI accumulation within F4/80(+) CD86(+) cells ([3]; after 4 weeks of CFZ treatment): ~31%
- CLDI(+)% as a proportion of F4/80(+) CD206(+) cells ([3]; after 4 weeks of CFZ treatment): ~15%
- % of F4/80(+) PMΦ that were CLDI(+) ([3]; after 8 weeks of treatment): ~61%
- % of total CLDI(+) cells localized to F4/80(+) peritoneal macrophages ([3]; all measured time points): > 85%
- p65 nuclear translocation ([4]; LPS stimulation, 3 h, 4 μM soluble CFZ or 40 μM CLDI): reduced p65 translocation in response to LPS
- p65 nuclear translocation ([4]; naïve, no stimulation): did not induce nuclear translocation of p65
